Test results: patent US20030229053A1, “Compounds and methods for the treatment or prevention of flavivirus infections” (Shire BioChem Inc., priority 2001, published 2003)

Each molecule was assayed against HCV NS5B RNA-dependent RNA polymerase (Hepatitis C virus genotype 1b, UniProt P26663) (assay: In vitro RNA-dependent RNA polymerase assay (Assay 1), polyA/oligo dT, TCA precipitation). Settings: not given.
Chain of HCV NS5B RNA-dependent RNA polymerase (P26663 2420-3010 limits assumed): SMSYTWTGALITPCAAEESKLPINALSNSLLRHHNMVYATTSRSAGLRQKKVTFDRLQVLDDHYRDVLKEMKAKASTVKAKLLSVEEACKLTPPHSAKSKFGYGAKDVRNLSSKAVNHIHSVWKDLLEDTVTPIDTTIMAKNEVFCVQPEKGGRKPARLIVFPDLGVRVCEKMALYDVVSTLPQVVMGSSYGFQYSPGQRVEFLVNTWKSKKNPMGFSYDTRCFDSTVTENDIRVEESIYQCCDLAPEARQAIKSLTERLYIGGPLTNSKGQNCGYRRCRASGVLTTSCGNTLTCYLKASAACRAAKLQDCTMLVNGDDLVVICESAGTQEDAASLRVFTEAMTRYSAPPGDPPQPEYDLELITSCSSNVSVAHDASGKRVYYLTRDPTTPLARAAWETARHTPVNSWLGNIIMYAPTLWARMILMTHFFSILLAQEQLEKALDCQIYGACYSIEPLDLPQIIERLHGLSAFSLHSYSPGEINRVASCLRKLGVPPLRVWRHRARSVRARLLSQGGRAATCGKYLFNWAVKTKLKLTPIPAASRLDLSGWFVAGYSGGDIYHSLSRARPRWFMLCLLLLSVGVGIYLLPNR
Type: biochemical
Method: Purification of Recombinant NS5B Using Fast Protein Liquid Chromatography (FPLC):
Soluble NS5B protein in the S3 fraction was diluted to lower the NaCl concentration to 300 mM, then it incubated batchwise with DEAE sepharose beads (Amersham-Pharmacia) for 2 hrs at 4° C., as described by Behrens et al. (1996). Unbound material was cleared by centrifugation for 15 min at 4° C., at 25,000 rpm using a SW41 rotor (Beckman). The supernatant was further diluted to lower the NaCl concentration to 200 mM and subsequently loaded, with a flow rate of 1 ml/min, on a 5 ml HiTrap® heparin column (Amersham-Pharmacia) connected to an FPLC® system (Amersham-Pharmacia). Bound proteins were eluted in 1 ml fractions, using a continuous NaCl gradient of 0.2 to 1 M, over a 25 ml volume. NS5B-containing fractions were identified by sodium dodecyl sulfate polyacrylamide gel electrophoresis (SDS-PAGE), followed by western blotting using the anti-NS5B antiserum at a dilution of 1:2000. Positive fractions were pooled and the elution buffer was exchanged against a 50 mM NaPO4 pH 7.0, 20% glycerol, 0.5% triton X-100 and 10 mM DTT, using a PD-10 column (Amersham-Pharmacia). The sample was then loaded onto a 1 ml HiTrap® SP column (Amersham-Pharmacia), with a flow rate of 0.1 ml/min. Bound proteins were eluted using a continuous 0 to 1 M NaCl gradient over a 15 ml volume. Eluted fractions were analyzed by SDS-PAGE and western blotting. Alternatively, proteins were visualized, following SDS-PAGE, by silver staining using the Silver Stain Plus kit (BioRad) as described by the manufacturer. […]
In vitro RNA-dependent RNA Polymerase Assays Used to Evaluate Biaryl Analogues (Assay 1):
RdRp assays were conducted using the homopolymeric template/primer polyA/oligo dT. All RdRp reactions were performed in a total volume of 50 μl, and in a basic buffer consisting of 20 mM Tris-HCl pH 7.5, 1 mM DTT, 50 mM NaCl, 5 mM MgCl2, 0.5 μCi […] (3000 Ci/mmol), 15 μM cold UTP and 20 U RNasin (Promega). Standard HCV RdRp reactions contained 200 ng of purified NS5B protein. PolyA RNAs (Amersham-Pharmacia) was resuspended at 400 ng/μl. The primer oligodT15 (Canadian life technologies) was diluted to a concentration of […] (7.6 ng/μl). Templates and primers were mixed volume to volume, denatured at 95° C. for 5 min and annealed at 37° C. for 10 min. Following a two hour incubation at 22° C., reactions were stopped by the addition of 100 μg of sonicated salmon sperm DNA (Life Technologies) and 1 ml of 10% trichloroacetic acid-0.5% tetrasodium pyrophosphate (TCA-PPi). Nucleic acids were precipitated at 4° C. for 30 min after which samples were filtered on GF/C glass microfiber filters (Millipore). Membranes were subsequently washed with 25 ml of a 1% TCA-0.1% PPi solution, then air dried. Incorporated radioactivity was quantified using a liquid scintillation counter (1450-Microbeta, Wallac). Results are shown in Table 1, in the column indicated as Assay 1.
`O=C(O)[C@H](Cc1ccccc1)N(Cc1cccc(Br)c1)C(=O)c1ccc(Cl)cc1Cl` [compound #9, (2s)-2-[(3-Bromo-benzyl)-(2,4-dichloro-benzoyl)-amino]-3-phenyl-propionic acid] showed an IC50 of under 5 µM.
Molecule `O=C(O)[C@H](Cc1ccccc1)N(Cc1cccc(Br)c1)C(=O)c1ccc(Cl)cc1` [compound #15, (2s)-2-[(3-Bromo-benzyl)-(4-chloro-benzoyl)-amino]-3-phenyl-propionic acid] has an IC50 of 5 to 20 µM.

Same assay, conditions: polyA/oligo dT template/primer, 200 ng NS5B, 2 h at 22° C.; read-out: RNA pol Assay 1 IC50 (μm)
In the case of `O=C(O)C(Cc1ccccc1)N(Cc1ccc(-c2cc3ccccc3o2)cc1)C(=O)c1ccc(Cl)cc1Cl` (stereo in doubt) [compound #4, (2s)-2-[(4-Benzofuran-2-yl-benzyl)-(2,4-dichloro-benzoyl)-amino]-3-phenyl-propionic acid], the IC50 is reported as under 5 µM.
`COc1cc(C)c(S(=O)(=O)N(Cc2ccc(-c3cc4ccccc4o3)cc2)C(Cc2ccccc2)C(=O)O)c(C)c1C` (stereo in doubt) [compound #6, (2s)-2-[(4-Benzofuran-2-yl-benzyl)-(4-methoxy-2,3,6-trimethyl-benzenesulfonyl)-amino]-3-phenyl-propionic acid] showed an IC50 of under 5 µM.
In the case of `C=CCN(C(=O)c1ccc(Cl)cc1I)C(Cc1ccccc1)C(=O)O` (stereo not drawn) [Compound #27, 2-[Allyl-(4-chloro-2-iodo-benzoyl)-amino]-3-phenyl-propionic acid], the IC50 is reported as 5 to 20 µM.
In the case of `O=C(O)CC(c1cccs1)N(Cc1ccc(-c2cccs2)cc1)C(=O)Nc1cc(Cl)nc(Cl)c1` (stereo not drawn) [compound #1, 3-[3-(2,6-Dichloro-pyridin-4-yl)-1-(4-thiophen-2-yl-benzyl)-ureido]-3-thiophen-2-yl-propionic acid], the IC50 is reported as 5 to 20 µM.
With `O=C(O)[C@H](Cc1ccccc1)N(Cc1ccc(-c2nccs2)cc1)C(=O)c1ccc(Cl)cc1Cl` [compound #2, (2s)-2-[(2,4-Dichloro-benzoyl)-(4-thiazol-2-yl-benzyl)-amino]-3-phenyl-propionic acid] the IC50 was under 5 µM.
With `O=C(O)[C@H](Cc1ccccc1)N(Cc1ccc(Br)cc1)C(=O)c1ccc(Cl)cc1Cl` [compound #3, (2s)-2-[(4-Bromo-benzyl)-(2,4-dichloro-benzoyl)-amino]-3-phenyl-propionic acid] the IC50 was under 5 µM.
`COc1cc(C)c(S(=O)(=O)N(Cc2ccc(-c3cc4ccccc4o3)cc2)[C@@H](Cc2ccccc2)C(=O)O)c(C)c1C` [compound #5, (2s)-2-[(4-Benzofuran-2-yl-benzyl) -(4-methoxy-2,3,6-trimethyl-benzenesulfonyl)-amino]-3-phenyl-propionic acid] showed an IC50 of under 5 µM.
In the case of `COc1cc(C)c(S(=O)(=O)N(Cc2cccc(-c3cc4ccccc4o3)c2)[C@@H](Cc2ccccc2)C(=O)O)c(C)c1C` [compound #7, (2s)-2-[(3-Benzofuran-2-yl-benzyl)-(4-methoxy-2,3,6-trimethyl-benzenesulfonyl)-amino]-3-phenyl-propionic acid], the IC50 is reported as under 5 µM.
`CCOC(=O)CC(c1cccs1)N(Cc1ccc(I)cc1)S(=O)(=O)c1c(C)cc(OC)c(C)c1C` (stereo not drawn) [compound #8, 3-[(4-Iodo-benzyl)-(4-methoxy-2,3,6-trimethyl-benzenesulfonyl)-amino]-3-thiophen-2-yl-propionic acid ethyl ester] showed an IC50 of 5 to 20 µM.
`O=C(O)[C@H](Cc1ccccc1)N(Cc1cccc(Br)c1)C(=O)c1ccccc1Cl` [compound #10, (2s)-2-[(3-Bromo-benzyl)-(2-chloro-benzoyl)-amino]-3-phenyl-propionic acid] showed an IC50 of over 20 µM.
`O=C(O)[C@H](Cc1ccccc1)N(Cc1cccc(-c2cc3ccccc3o2)c1)C(=O)c1ccc(Cl)cc1Cl` [compound #11, (2s)-2-[(3-Benzofuran-2-yl-benzyl)-(2,4-dichloro-benzoyl)-amino]-3-phenyl-propionic acid] gave an IC50 of 5 to 20 µM.
Work on `O=C(O)[C@H](Cc1ccccc1)N(Cc1ccc(I)cc1)C(=O)c1ccc(Cl)cc1Cl` [compound #12, (2s)-2-[(2,4-Dichloro-benzoyl)-(4-iodo-benzyl)-amino]-3-phenyl-propionic acid] yielded an IC50 of 5 to 20 µM.
Molecule `COc1cc(C)c(S(=O)(=O)N(Cc2cccc(I)c2)[C@@H](Cc2ccccc2)C(=O)O)c(C)c1C` [compound #13, (2s)-2-[(3-Iodo-benzyl)-(4-methoxy-2,3,6-trimethyl-benzenesulfonyl)-amino]-3-phenyl-propionic acid] has an IC50 of 5 to 20 µM.
In the case of `COc1cc(C)c(S(=O)(=O)N(Cc2ccc(Br)cc2)[C@@H](Cc2ccccc2)C(=O)O)c(C)c1C` [compound #14, (2s)-2-[(4-Bromo-benzyl)-(4-methoxy-2,3,6-trimethyl-benzenesulfonyl)-amino]-3-phenyl-propionic acid], the IC50 is reported as 5 to 20 µM.
`COc1cc(C)c(S(=O)(=O)N(Cc2ccc(I)cc2)[C@@H](Cc2ccccc2)C(=O)O)c(C)c1C` [compound #16, (2s)-2-[(4-Iodo-benzyl)-(4-methoxy-2,3,6-trimethyl-benzenesulfonyl)-amino]-3-phenyl-propionic acid] gave an IC50 of 5 to 20 µM.
In the case of `COc1cc(C)c(S(=O)(=O)N(Cc2cccc(Br)c2)[C@@H](Cc2ccccc2)C(=O)O)c(C)c1C` [compound #17, (2s)-2-[(3-Bromo-benzyl)-(4-methoxy-2,3,6-trimethyl-benzenesulfonyl)-amino]-3-phenyl-propionic acid], the IC50 is reported as 5 to 20 µM.
`COC(=O)c1ccc(-c2ccc(CN([C@@H](Cc3ccccc3)C(=O)O)S(=O)(=O)c3c(C)cc(OC)c(C)c3C)cc2)o1` [compound #18, (2s)-5-(4-{[(1s-1-Carboxy-2-phenyl-ethyl)-(4-methoxy-2,3,6-trimethyl-benzenesulfonyl)-amino]-methyl}-phenyl)-furan-2-carboxylic acid methyl ester] showed an IC50 of over 20 µM.
`O=C(O)[C@H](Cc1ccccc1)N(Cc1cccc(Br)c1)C(=O)c1ccc(Cl)c(Cl)c1` [compound #19, (2s)-2-[(3-Bromo-benzyl)-(3,4-dichloro-benzoyl)-amino]-3-phenyl-propionic acid] gave an IC50 of over 20 µM.
For `O=C(O)[C@H](Cc1ccccc1)N(Cc1cccc(Br)c1)S(=O)(=O)c1ccc(Cl)cc1Cl` [compound #20, (2s)-2-[(3-Bromo-benzyl)-(2,4-dichloro-benzenesulfonyl)-amino]-3-phenyl-propionic acid], the IC50 was over 20 µM.
Molecule `O=C(O)[C@H](Cc1cn(Cc2ccccc2)cn1)N(Cc1cccc(Br)c1)C(=O)c1ccc(Cl)cc1Cl` [compound #21, (2s)-3-(1-Benzyl-1h-imidazol-4-yl)-2-[(3-bromo-benzyl)-(2,4-dichloro-benzoyl)-amino]-propionic acid] has an IC50 of 5 to 20 µM.
`O=C(O)[C@H](Cc1ccccc1)N(Cc1cccc(Br)c1)C(=O)Cc1ccc(Cl)cc1Cl` [compound #22, (2s)-2-{(3-Bromo-benzyl)-[(2,4-dichloro-phenyl)-acetyl]-amino}-3-phenyl-propionic acid] was tested, and the IC50 was 5 to 20 µM.
`COC(=O)c1ccc(-c2ccc(CN([C@@H](Cc3ccccc3)C(=O)O)S(=O)(=O)c3c(C)cc(OC)c(C)c3C)cc2)s1` [compound #23, (2s)-5-(4-{[(1s-1-Carboxy-2-phenyl-ethyl)-(4-methoxy-2,3,6-trimethyl-benzenesulfonyl)-amino]-methyl}-phenyl)-thiophene-2-carboxylic acid methyl ester] was tested, and the IC50 was over 20 µM.
`COc1cc(C)c(S(=O)(=O)N(Cc2ccccc2Br)[C@@H](Cc2ccccc2)C(=O)O)c(C)c1C` [compound #24, (2s)-2-[(2-Bromo-benzyl)-(4-methoxy-2,3,6-trimethyl-benzenesulfonyl)-amino]-3-phenyl-propionic acid] was tested, and the IC50 was 5 to 20 µM.
`Cc1ccc(C(=O)N(Cc2cccc(Br)c2)[C@@H](Cc2ccccc2)C(=O)O)c(C)c1` [compound #28, (2s)-2-[(3-Bromo-benzyl)-(2,4-dimethyl-benzoyl)-amino]-3-phenyl-propionic acid] showed an IC50 of under 5 µM.
With `Cc1ccc(C(=O)N(Cc2cccc(-c3cc4ccccc4o3)c2)[C@@H](Cc2ccccc2)C(=O)O)c(C)c1` [compound #31, (2s)-2-[(3-Benzofuran-2-yl-benzyl)-(2,4-dimethyl-benzoyl)-amino]-3-phenyl-propionic acid] the IC50 was under 5 µM.
